{"source": "paper PMC12562155", "about": "“Interference-Free Measurement of Urinary Angiotensin-Converting Enzyme (ACE) Activity: Diagnostic and Therapeutic Monitoring Implications” (Biomedicines, 2025)", "type_in_all_cases": "biochemical", "key": {"[1]": {"biological_target": "T1, urinary angiotensin-converting enzyme (uACE) (Homo sapiens, UniProt P12821)", "T1 construct": "from tissue; host or cells: human urine (native, or retentate of 10 kDa / 30 kDa Vivaspin 20 membrane filters)", "T1 sequence (P12821 30-1232 limits assumed)": "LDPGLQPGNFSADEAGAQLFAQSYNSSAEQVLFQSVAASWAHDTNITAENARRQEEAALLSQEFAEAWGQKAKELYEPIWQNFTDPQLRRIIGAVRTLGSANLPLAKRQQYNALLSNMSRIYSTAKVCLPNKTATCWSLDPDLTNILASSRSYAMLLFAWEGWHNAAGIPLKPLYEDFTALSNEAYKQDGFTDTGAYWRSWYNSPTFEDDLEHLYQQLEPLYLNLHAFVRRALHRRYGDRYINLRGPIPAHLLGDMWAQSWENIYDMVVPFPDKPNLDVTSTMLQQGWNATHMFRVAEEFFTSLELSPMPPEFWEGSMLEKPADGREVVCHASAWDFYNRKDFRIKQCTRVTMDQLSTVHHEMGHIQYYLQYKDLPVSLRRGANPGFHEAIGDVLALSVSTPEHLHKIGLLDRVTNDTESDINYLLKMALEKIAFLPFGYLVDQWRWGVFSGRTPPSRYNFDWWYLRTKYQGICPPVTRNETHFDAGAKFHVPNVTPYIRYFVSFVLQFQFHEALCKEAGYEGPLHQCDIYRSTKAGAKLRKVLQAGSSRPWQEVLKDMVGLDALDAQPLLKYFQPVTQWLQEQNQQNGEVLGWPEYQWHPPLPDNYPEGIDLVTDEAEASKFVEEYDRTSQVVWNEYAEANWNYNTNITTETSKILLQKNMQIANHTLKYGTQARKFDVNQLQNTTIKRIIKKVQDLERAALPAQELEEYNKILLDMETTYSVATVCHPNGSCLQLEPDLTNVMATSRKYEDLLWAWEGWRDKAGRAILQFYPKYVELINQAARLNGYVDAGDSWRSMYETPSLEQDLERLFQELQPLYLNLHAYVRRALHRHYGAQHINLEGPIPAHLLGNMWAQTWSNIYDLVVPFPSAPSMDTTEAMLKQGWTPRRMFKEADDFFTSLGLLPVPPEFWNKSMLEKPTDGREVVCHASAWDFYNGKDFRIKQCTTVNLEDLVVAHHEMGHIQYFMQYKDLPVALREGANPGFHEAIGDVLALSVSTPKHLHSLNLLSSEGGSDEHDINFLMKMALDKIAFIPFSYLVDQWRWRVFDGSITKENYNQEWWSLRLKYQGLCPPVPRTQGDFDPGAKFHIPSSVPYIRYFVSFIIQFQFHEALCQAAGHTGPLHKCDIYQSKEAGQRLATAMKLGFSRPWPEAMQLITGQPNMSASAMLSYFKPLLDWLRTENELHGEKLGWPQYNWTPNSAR", "experiment": "Fluorescent kinetic uACE activity assay with ACE-specific inhibitors and inhibitors of other proteases (sensitivity testing)", "conditions": "for effect on measured uACE activity: peptidase inhibitors, inhibitor-free 10 kDa retentate"}, "[2]": {"biological_target": "T1, urinary angiotensin-converting enzyme (uACE)", "experiment": "Fluorescent kinetic ACE activity assay on inhibitor-free ACE purified from urine (30 kDa retentate) with potential endogenous inhibitors", "conditions": "for uACE inhibition within reference (physiological) urinary concentration range: ACE purified from urine, physiological concentration range of the molecule in urine; for IC50: ACE purified from urine (30 kDa retentate), two-phase decay fit", "experimental": "(§1) ACE activity was measured using the optimized fluorescent kinetic method previously reported by our group with different sample dilutions for each experiment.\nIn the final dilutional protocol, the reaction mixture contained 100 mM tris(hydroxymethyl)aminomethane hydrochloride (TRIS) buffer (pH 7.0), 15 μM Abz-FRK(Dnp)P-OH substrate (synthesized by Peptide 2.0, Chantilly, VA, USA), 50 mM NaCl, 10 μM ZnCl2, and urine at 64-fold and 128-fold final dilutions. […] Continuous recording of fluorescent intensity change was performed for 90 min with 1-min measurement intervals at 37 °C. Data points between 20 min and 80 min were used for analysis. When activity measured at 64-fold dilution exceeded that measured at 128-fold, the 64-fold results were used to avoid over-dilution bias of dilute urine samples.\nInhibitor-free ACE pre-purified on a 30 kDa Vivaspin 20 membrane filter column was used to identify inhibitors. Potential inhibitors were dissolved according to factory instructions (Urea: Cat. No.: U6504-1KG; Sigma-Aldrich, St. Louis, MO, USA; Uric acid: Cat. No.: U2625-25G; Sigma-Aldrich, St. Louis, MO, USA; Urobilinogen: Cat. No: 651-10; Lee Biosolutions, Maryland Heights, MO, USA). In the corresponding experiments, uACE with activities ranging from 0.15 to 0.53 U/L was applied. The obtained curves were fitted using the ‘two-phase decay’ equation in GraphPad Prism software, version 9 (GraphPad Software Inc., San Diego, CA, USA)."}, "serum ACE": {"biological_target": "T2, serum ACE (Homo sapiens, UniProt P12821)", "T2 construct": "from tissue; host or cells: serum", "T2 sequence (P12821 30-1232 limits assumed)": "as above", "experiment": "Serum ACE activity in the presence of phosphoramidon", "conditions": "compared with effect on uACE", "experimental": "as §1"}}, "note": "Counter-ions that a name gives are not always drawn. Residues, ends and D or L forms follow the SMILES beside them. *: point of attachment. Cbz = O=C(OCc1ccccc1)*"}
{"smiles": "CC(C)C[C@@H](N)[C@H](O)C(=O)N[C@H](C(=O)N[C@H](C(=O)N[C@@H](CC(=O)O)C(=O)O)C(C)C)C(C)C.Cl", "note": "[Amastatin hydrochloride]", "values": [{"measurement": "effect on measured uACE activity", "setting": "[1]", "result": "had no effect"}]}
{"smiles": "CC(C)C[C@H](N[C@@H](Cc1cncn1Cc1cc(Cl)cc(Cl)c1)C(=O)O)C(=O)O", "note": "[MLN-4760]", "values": [{"measurement": "effect on measured uACE activity", "setting": "[1]", "result": "had no effect"}]}
{"smiles": "NC(N)=O", "note": "[Urea]", "values": [{"measurement": "uACE inhibition within reference (physiological) urinary concentration range", "setting": "[2]", "result": "10–25%"}]}
{"smiles": "O=c1[nH]c(=O)c2[nH]c(=O)[nH]c2[nH]1", "note": "[Uric acid]", "values": [{"measurement": "IC50", "setting": "[2]", "result": 3610, "unit": "µM"}, {"measurement": "uACE inhibition within reference (physiological) urinary concentration range", "setting": "[2]", "result": "30–50%"}]}
{"smiles": "CCC1=C(C)C(Cc2[nH]c(Cc3[nH]c(CC4NC(=O)C(C)=C4CC)c(C)c3CCC(=O)O)c(CCC(=O)O)c2C)NC1=O", "note": "(stereo not drawn) [Urobilinogen]", "values": [{"measurement": "IC50", "setting": "[2]", "result": 298, "unit": "µM"}, {"measurement": "IC50", "setting": "[2]; listed as urobilinogen", "result": 298, "unit": "µM"}, {"measurement": "uACE inhibition within reference (physiological) urinary concentration range", "setting": "[2]", "result": "3–20%"}]}
{"smiles": "O=C[C@@H]1CCCN1C(=O)[C@@H]1CCCN1C(=O)OCc1ccccc1", "note": "[Z-prolyl-prolinal] (Cbz-Pro-Pro-aldehyde)", "values": [{"measurement": "effect on measured uACE activity", "setting": "[1]", "result": "no detectable effect"}]}
{"smiles": "C[C@H](NC(=O)[C@@H]1CCCN1C(=O)[C@@H]1CCCN1C(=O)[C@@H](O)[C@H](N)Cc1ccccc1)C(N)=O", "note": "[apstatin, Apstatin]", "values": [{"measurement": "effect on measured uACE activity", "setting": "[1]", "result": "did not alter uACE activity"}]}
{"smiles": "CC(C)C[C@H](NC(=O)[C@@H](O)[C@H](N)Cc1ccccc1)C(=O)O", "note": "[bestatin hydrochloride, Bestatin hydrochloride]", "values": [{"measurement": "effect on measured uACE activity", "setting": "[1]", "result": "did not alter uACE activity"}]}
{"smiles": "NCCCC[C@H](N[C@@H](CCc1ccccc1)C(=O)O)C(=O)N1CCC[C@H]1C(=O)O", "note": "[lisinopril]", "values": [{"measurement": "inhibition of ACE activity in control reactions", "setting": "[1]; 1 μM", "result": "completely inhibiting ACE activity"}, {"measurement": "extent of uACE activity inhibition", "setting": "[1]; ACE-inhibitor drugs, concentration series", "result": "completely inhibited"}]}
{"smiles": "CC(C)C[C@H](NP(=O)(O)O[C@@H]1O[C@@H](C)[C@H](O)[C@@H](O)[C@H]1O)C(=O)N[C@@H](Cc1c[nH]c2ccccc12)C(=O)O", "note": "[phosphoramidon disodium salt, Phosphoramidon disodium salt]", "values": [{"measurement": "reduction of uACE activity", "setting": "[1]; 1 μM concentration", "result": "approximately 35%"}, {"measurement": "effect on serum ACE activity", "setting": "serum ACE", "result": "comparable inhibitory effect"}]}
